Reference: ChEMBL document CHEMBL6109039, “Designed and synthesized novel tripeptides targeting diabetes and its related pathologies” (Eur J Med Chem, 2025)

Experiments:
Assay type in all cases: functional
[1] = test system: Mus musculus; experiment: Antidiabetic activity in Nicotinamide/Streptozotocin induced male Balb/c mouse model assessed as reduction in fasting blood glucose levels at 10 mg/kg, po measured after 21 days by glucometer analysis (reference value: 180.5 +/- 9.02 mg/dl); conditions: time 21 day
[2] = test system: Mus musculus; experiment: Antidiabetic activity in Nicotinamide/Streptozotocin induced male Balb/c mouse model assessed as reduction in fasting blood glucose levels at 10 mg/kg, po measured after 14 days by glucometer analysis (reference value: 168.5 +/- 8.42 mg/dl); conditions: time 14 day
[3] = test system: Mus musculus; experiment: Antidiabetic activity in Nicotinamide/Streptozotocin induced male Balb/c mouse model assessed as TC/HDL-Cholesterol ratio in blood at 10 mg/kg, po treated for 21 days (reference value: 4.03); conditions: time 21 day
[4] = test system: Mus musculus; experiment: Antidiabetic activity in Nicotinamide/Streptozotocin induced male Balb/c mouse model assessed as change in body weight at 10 mg/kg, po measured immediately (reference value: 25.08 +/- 1.25 g)
[5] = test system: Mus musculus; experiment: Antidiabetic activity in Nicotinamide/Streptozotocin induced male Balb/c mouse model assessed as reduction in Triglycerides level in blood at 10 mg/kg, po treated for 21 days (reference value: 61 +/- 3.05 mg/dL); conditions: time 21 day
[6] = test system: Mus musculus; experiment: Antidiabetic activity in Nicotinamide/Streptozotocin induced male Balb/c mouse model assessed as change in body weight at 10 mg/kg, po treated for 21 days relative to control; conditions: time 21 day
[7] = test system: Mus musculus; experiment: Antidiabetic activity in Nicotinamide/Streptozotocin induced male Balb/c mouse model assessed as reduction in HbA1c levels at 10 mg/kg, po treated for 21 days by Turbidimetric inhibition immunoassay; set-up: scale not given: the % may be the effect or the level left; conditions: time 21 day
[8] = test system: Mus musculus; experiment: Antidiabetic activity in Nicotinamide/Streptozotocin induced male Balb/c mouse model assessed as reduction in aspartate transaminase level in blood at 10 mg/kg, po treated for 21 days (reference value: 171 +/- 8.55 U/L); conditions: time 21 day
[9] = test system: Mus musculus; experiment: Antidiabetic activity in Nicotinamide/Streptozotocin induced male Balb/c mouse model assessed as reduction in VLDL-Cholesterol level in blood at 10 mg/kg, po treated for 21 days (reference value: 14 +/- 0.6 mg/dL); conditions: time 21 day
[10] = test system: Mus musculus; experiment: Antidiabetic activity in Nicotinamide/Streptozotocin induced male Balb/c mouse model assessed as relative liver weight at 10 mg/kg, po treated for 21 days (reference value: 0.77 +/- 0.04 mg/g); conditions: time 21 day
[11] = test system: Mus musculus; experiment: Antidiabetic activity in Nicotinamide/Streptozotocin induced male Balb/c mouse model assessed as reduction in fasting blood glucose levels at 10 mg/kg, po measured immediately by glucometer analysis (reference value: 127.50 +/- 6.87 mg/dl)
[12] = test system: Mus musculus; experiment: Antidiabetic activity in Nicotinamide/Streptozotocin induced male Balb/c mouse model assessed as reduction in LDL-Cholesterol level in blood at 10 mg/kg, po treated for 21 days (reference value: 46 +/- 2.30 mg/dL); conditions: time 21 day
[13] = test system: Mus musculus; experiment: Antidiabetic activity in Nicotinamide/Streptozotocin induced male Balb/c mouse model assessed as change in body weight at 10 mg/kg, po treated for 21 days (reference value: 16.62 +/- 0.83 g); conditions: time 21 day
[14] = test system: Mus musculus; experiment: Antidiabetic activity in Nicotinamide/Streptozotocin induced male Balb/c mouse model assessed as LDL-Cholesterol/HDL Cholesterol ratio in blood at 10 mg/kg, po treated for 21 days (reference value: 1.53); conditions: time 21 day
[15] = test system: Mus musculus; experiment: Antidiabetic activity in Nicotinamide/Streptozotocin induced male Balb/c mouse model assessed as reduction in alanine aminotransferase level in blood at 10 mg/kg, po treated for 21 days (reference value: 111 +/- 5.05 U/L); conditions: time 21 day
[16] = test system: Mus musculus; experiment: Antidiabetic activity in Nicotinamide/Streptozotocin induced male Balb/c mouse model assessed as Non-HDL-Cholesterol level in blood at 10 mg/kg, po treated for 21 days (reference value: 75 mg/dL); conditions: time 21 day
[17] = test system: Mus musculus; experiment: Antidiabetic activity in Nicotinamide/Streptozotocin induced male Balb/c mouse model assessed as reduction in fasting blood glucose levels at 10 mg/kg, po measured after 7 days by glucometer analysis (reference value: 160.5 +/- 8.02 mg/dl); conditions: time 7 day
[18] = test system: Mus musculus; experiment: Antidiabetic activity in Nicotinamide/Streptozotocin induced male Balb/c mouse model assessed as reduction in total cholesterol level in blood at 10 mg/kg, po treated for 21 days (reference value: 121 +/- 6.05 mg/dL); conditions: time 21 day
[19] = test system: Mus musculus; experiment: Antidiabetic activity in Nicotinamide/Streptozotocin induced male Balb/c mouse model assessed as reduction in HDL-Cholesterol level in blood at 10 mg/kg, po treated for 21 days (reference value: 30 +/- 1.80 mg/dL); conditions: time 21 day

CCC1=C(C)CN(C(=O)NCCc2ccc(S(=O)(=O)NC(=O)N[C@H]3CC[C@H](C)CC3)cc2)C1=O [GLIMEPIRIDE]
Activity [1]: 111.5 mg/dL
Activity [2]: 108.5 mg/dL
Ratio [3]: 2.91
Activity [4]: 12.94 g
Activity [5]: 56 mg/dL
Activity [6]: 42.69%
Activity [7]: 7.1%
Activity [8]: 153 U/L
Activity [9]: 12 mg/dL
Activity [10]: 1.23 mg/g
Activity [11]: 109 mg/dL
Activity [12]: 26 mg/dL
Activity [13]: 22.58 g
Ratio [14]: 0.702
Activity [15]: 97 U/L
Activity [16]: 82 mg/dL
Activity [17]: 143.5 mg/dL
Activity [18]: 108 mg/dL
Activity [19]: 37 mg/dL
